Measurements taken from patent EP1202975B1, “SUBSTITUTED POLYCYCLIC ARYL AND HETEROARYL PYRAZINONES USEFUL FOR SELECTIVE INHIBITION OF THE COAGULATION CASCADE” (Pharmacia Corporation, priority 1999, dated 2000).
Like-named read-outs stand apart in the source and are kept apart here.

How the values were obtained:
Human factor Xa = Human factor Xa (Homo sapiens, UniProt P00742); assay: Xa Assay; conditions: for IC50 or % Inhibition Factor Xa (30 µM): % inhibition at 30 µM
TF-VIIa = target: T1, TF-VIIa (Homo sapiens, UniProt P08709); assay: TF-VIIa Assay; format: biochemical
T1 construct: 2nM recombinant human factor VIIa; purchased American Diagnostica, Greenwich CT; host or cells: soluble TF made in house in E. coli

[1] = read-out: IC50 or % Inhibition Factor Xa (30 µM), cells given as a plain number (IC50)
[2] = read-out: IC50 or % Inhibition TF-VIIa (30 µM); cells given as a plain number (IC50)
[3] = cells given as a plain number (IC50); read-out: IC50 or % Inhibition TF-VIIa (30 µM)

Human factor Xa, sequence (P00742 235-488 limits assumed): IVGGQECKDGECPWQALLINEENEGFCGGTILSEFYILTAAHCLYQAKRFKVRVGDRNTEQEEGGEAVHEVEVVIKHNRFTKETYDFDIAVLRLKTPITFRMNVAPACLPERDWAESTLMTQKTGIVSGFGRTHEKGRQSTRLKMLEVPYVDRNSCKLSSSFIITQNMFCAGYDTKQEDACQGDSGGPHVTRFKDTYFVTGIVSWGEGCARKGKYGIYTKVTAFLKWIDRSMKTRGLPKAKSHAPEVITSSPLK
Human factor Xa, sequence (P00742 41-179 limits assumed): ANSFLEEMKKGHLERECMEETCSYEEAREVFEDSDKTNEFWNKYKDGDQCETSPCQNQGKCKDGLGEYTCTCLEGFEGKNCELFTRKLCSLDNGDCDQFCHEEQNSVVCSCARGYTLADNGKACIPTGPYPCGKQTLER
T1 sequence (P08709 213-466 limits assumed): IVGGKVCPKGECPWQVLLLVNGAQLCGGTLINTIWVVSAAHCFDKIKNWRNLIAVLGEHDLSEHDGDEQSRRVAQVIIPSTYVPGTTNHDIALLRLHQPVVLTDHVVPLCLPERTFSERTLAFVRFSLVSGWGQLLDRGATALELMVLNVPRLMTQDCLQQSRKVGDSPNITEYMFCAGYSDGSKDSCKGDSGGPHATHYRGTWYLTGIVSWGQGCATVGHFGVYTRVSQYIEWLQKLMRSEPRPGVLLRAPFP
T1 sequence (P08709 61-212 limits assumed): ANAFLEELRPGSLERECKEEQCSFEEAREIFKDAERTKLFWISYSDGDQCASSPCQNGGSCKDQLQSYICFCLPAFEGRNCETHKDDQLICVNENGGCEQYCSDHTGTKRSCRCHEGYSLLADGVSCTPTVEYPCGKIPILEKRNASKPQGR
T1 sequence (P13726 33-251 partner limits assumed): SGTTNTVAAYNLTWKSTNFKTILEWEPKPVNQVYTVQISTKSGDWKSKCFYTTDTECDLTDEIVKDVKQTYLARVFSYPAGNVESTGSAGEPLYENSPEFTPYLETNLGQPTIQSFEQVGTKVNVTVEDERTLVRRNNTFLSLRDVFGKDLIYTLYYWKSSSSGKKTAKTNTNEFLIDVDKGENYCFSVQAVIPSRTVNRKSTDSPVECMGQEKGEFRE

| IC50 (Human factor Xa; [1]) | IC50 (TF-VIIa; [2]) | IC50 (TF-VIIa; [3]) | SMILES | further results |
| --- | --- | --- | --- | --- |
| > 30000 nM | 24200 nM | – | N=C(N)c1ccc(CNC(=O)Cn2c(-c3ccc(F)cc3)c(Cl)nc(NC3CCC3)c2=O)cc1 [1515-19] | – |
| – | – | – | N=C(N)c1ccc(CNC(=O)Cn2c(-c3ccc(-c4ccccc4)cc3)c(Cl)nc(NCCc3ccc(Cl)cc3)c2=O)cc1 [Example 22] | IC50 or % Inhibition Factor Xa (30 µM) (Human factor Xa): 13%@30; IC50 or % Inhibition TF-VIIa (30 µM) (TF-VIIa; % inhibition at 30 µM): 0%@30 |
| – | – | – | CCCCNc1nc(Cl)c(-c2ccccc2)n(CC(=O)NCc2ccc(C(=N)N)cc2)c1=O [1517-35] | IC50 or % Inhibition Factor Xa (30 µM) (Human factor Xa): 0%; IC50 or % Inhibition TF-VIIa (30 µM) (TF-VIIa; % inhibition at 30 µM): 33% |
| > 30000 nM | – | 840 nM | CC(C)CCNc1nc(Cl)c(-c2ccccc2)n(CC(=O)NCc2ccc(C(=N)N)cc2)c1=O [1522-14] | – |
| > 30000 nM | 4000 nM | – | CCN1CC(Nc2nc(Cl)c(-c3ccccc3)n(CC(=O)NCc3ccc(C(=N)N)cc3)c2=O)CN1CC [1522-35] | – |
| > 30000 nM | – | 40 nM | CN(C)Nc1nc(Cl)c(-c2cccc(N)c2)n(CC(=O)NCc2ccc(C(=N)N)cc2)c1=O [compound 94] | – |
| > 30000 nM | 5200 nM | – | N=C(N)c1ccc(CNC(=O)Cn2c(-c3ccccc3Cl)c(Cl)nc(NCc3ccccc3)c2=O)cc1 [1515-04] | – |
| > 30000 nM | 2900 nM | – | COc1ccccc1-c1c(Cl)nc(NC2CCC2)c(=O)n1CC(=O)NCc1ccc(C(=N)N)cc1 [1515-14] | – |
| > 30000 nM | 260 nM | – | N=C(N)c1ccc(CNC(=O)Cn2c(-c3cccc(N)c3)c(Cl)nc(NC[C@@H]3CCCO3)c2=O)cc1 [1526-33] | – |
| > 30000 nM | 8500 nM | – | C[C@H](Nc1nc(Cl)c(-c2ccccc2)n(CC(=O)NCc2ccc(C(=N)N)cc2)c1=O)c1ccccc1 [1507-34] | – |
| > 30000 nM | – | 800 nM | N=C(N)c1ccc(CNC(=O)Cn2c(-c3ccccc3)c(Cl)nc(NC3CC4CCC3C4)c2=O)cc1 (stereo not shown) [1522-44] | – |
| > 30000 nM | 800 nM | – | C[C@H](Nc1nc(Cl)c(-c2ccccc2)n(CC(=O)NCc2ccc(C(=N)N)cc2)c1=O)C1CCCCC1 [1522-43] | – |
| > 30000 nM | – | – | N=C(N)c1ccc(CNC(=O)Cn2c(-c3ccccc3)c(Cl)nc(NCc3ccc(Cl)cc3Cl)c2=O)cc1 [1507-22] | IC50 or % Inhibition TF-VIIa (30 µM) (TF-VIIa): 45% |
| – | – | 1700 nM | N=C(N)c1ccc(CNC(=O)Cn2c(-c3cccc(Cl)c3)c(Cl)nc(NCc3ccccc3)c2=O)cc1 [Example 23] | IC50 or % Inhibition Factor Xa (30 µM) (Human factor Xa): 38%@30 |
| > 30000 nM | 20 nM | – | N=C(N)c1ccc(CNC(=O)Cn2c(-c3cccc(N)c3)c(Cl)nc(NC3CC3)c2=O)cc1 [1526-01] | – |
| > 30000 nM | – | 100 nM | N=C(N)c1ccc(CNC(=O)Cn2c(-c3cccc(N)c3)c(Cl)nc(NCc3ccccc3)c2=O)cc1 [compound 88] | – |
| – | – | > 100000 nM | COc1ccc(-c2cnc(NCCc3ccccc3)c(=O)n2CC(=O)NCCCCNC(=N)N)cc1 [Example 14] | IC50 (Human factor Xa): > 100000 nM |
| > 30000 nM | 1100 nM | – | N=C(N)c1ccc(CNC(=O)Cn2c(-c3sccc3Br)c(Cl)nc(NCCc3ccccc3)c2=O)cc1 [1515-27] | – |
| – | – | 1110 nM | N=C(N)c1ccc(CNC(=O)Cn2c(-c3ccccc3)cnc(NC(=O)Nc3ccccc3)c2=O)cc1 [Example 106] | IC50 or % Inhibition Factor Xa (30 µM) (Human factor Xa): 30% |
| > 30000 nM | 20500 nM | – | N=C(N)c1ccc(CNC(=O)Cn2c(-c3ccccc3)c(Cl)nc(NCc3ccc(F)cc3F)c2=O)cc1 [1507-26] | – |
| > 30000 nM | 2000 nM | – | N=C(N)c1ccc(CNC(=O)Cn2c(-c3ccccc3)c(Cl)nc(NCCNc3ncc(C(F)(F)F)cc3Cl)c2=O)cc1 [1522-37] | – |
| – | – | 100 nM | N=C(N)NCCC[C@H](NC(=O)Cn1c(-c2ccccc2)cnc(NCCc2ccccc2)c1=O)C(=O)c1nccs1 [Example 6] | IC50 (Human factor Xa): 1000 nM |

| IC50 (Human factor Xa; [1]) | IC50 (TF-VIIa; [2]) | IC50 (TF-VIIa; [3]) | SMILES | further results |
| --- | --- | --- | --- | --- |
| – | – | 570 nM | N=C(N)c1ccc(CNC(=O)Cn2c(-c3ccccc3)cnc(NC(=O)Nc3cccc(N)c3)c2=O)cc1 [Example 107] | IC50 or % Inhibition Factor Xa (30 µM) (Human factor Xa): 35% |
| > 30000 nM | 1700 nM | – | N=C(N)c1ccc(CNC(=O)Cn2c(-c3cccs3)c(Cl)nc(NCc3ccccc3)c2=O)cc1 [1515-06] | – |
| > 30000 nM | – | 260 nM | CNc1cccc(-c2c(Cl)nc(NC(C)C)c(=O)n2CC(=O)NCc2ccc(C(=N)N)cc2)c1 [compound 96] | – |
| > 30000 nM | 1200 nM | – | N=C(N)c1ccc(CNC(=O)Cn2c(-c3cccs3)c(Cl)nc(NCCc3ccccc3)c2=O)cc1 [1515-30] | – |
| – | – | 53 nM | N=C(N)c1ccc(CNC(=O)Cn2c(-c3cccc(N)c3)cnc(NC3CCC3)c2=O)cc1 [compound 92] | IC50 or % Inhibition Factor Xa (30 µM) (Human factor Xa): 18%@30 |
| – | – | 200 nM | N=C(N)NCCC[C@H](NC(=O)Cn1c(-c2ccccc2)c(Cl)nc(NCCc2ccccc2)c1=O)C(=O)c1nccs1 [Example 3] | IC50 (Human factor Xa): 1000 nM |
| > 30000 nM | 80 nM | – | CC(C)(C)Nc1nc(Cl)c(-c2cccc(N)c2)n(CC(=O)NCc2ccc(C(=N)N)cc2)c1=O [1526-07] | – |
| – | – | 7000 nM | N=C(N)NCCC[C@H](NC(=O)Cn1c(CCc2ccccc2)c(Cl)nc(NCCc2ccccc2)c1=O)C(=O)c1nccs1 [Example 5] | IC50 (Human factor Xa): 4000 nM |
| – | – | 3000 nM | N=C(N)NCCC[C@H](NC(=O)Cn1c(CCc2ccccc2)cnc(NCCc2ccccc2)c1=O)C(=O)c1nccs1 [Example 8] | IC50 (Human factor Xa): 1000 nM |
| – | – | 650 nM | N=C(N)c1ccc(CNC(=O)Cn2c(-c3ccccc3)c(Cl)nc(NCc3ccc(C(=N)N)cc3)c2=O)cc1 [Example 51] | IC50 (Human factor Xa): 9680 nM |
| > 30000 nM | 30 nM | – | N=C(N)c1ccc(CNC(=O)Cn2c(-c3cccc(N)c3)c(Cl)nc(NCC(F)(F)F)c2=O)cc1 [1526-04] | – |
| > 30000 nM | 60 nM | – | CC(C)CNc1nc(Cl)c(-c2cccc(N)c2)n(CC(=O)NCc2ccc(C(=N)N)cc2)c1=O [1526-26] | – |
| > 30000 nM | 26700 nM | – | COc1ccc(CNc2nc(Cl)c(-c3ccccc3)n(CC(=O)NCc3ccc(C(=N)N)cc3)c2=O)cc1 [1507-13] | – |
| – | – | 30 nM | CC(C)Nc1nc(Cl)c(-c2cc(N)ccc2F)n(CC(=O)NCc2ccc(C(=N)N)cc2F)c1=O [compound 73] | IC50 or % Inhibition Factor Xa (30 µM) (Human factor Xa): 0% |
| – | – | 90 nM | Cc1c(N)cccc1-c1cnc(NC(C)C)c(=O)n1CC(=O)NCc1ccc(C(=N)N)cc1 [compound 98] | IC50 or % Inhibition Factor Xa (30 µM) (Human factor Xa): 10%@30 |
| – | – | 5800 nM | N=C(N)c1ccc(CNC(=O)Cn2c(-c3ccccc3)c(Cl)nc(NC3CCCCCC3)c2=O)cc1 [1507-29] | IC50 or % Inhibition Factor Xa (30 µM) (Human factor Xa): 4% |
| – | – | – | N=C(N)c1ccc(CNC(=O)Cn2c(-c3cccc(N)c3)c(Cl)nc(NC3CCC3)c2=O)c(F)c1 [1543-39] | IC50 or % Inhibition Factor Xa (30 µM) (Human factor Xa): 14%; IC50 (TF-VIIa; cells without % sign: IC50; read-out: IC50 or % Inhibition TF-VIIa (30 µM)): 40 nM |
| – | – | > 100000 nM | N=C(N)NCCCCNC(=O)Cn1c(-c2ccc3c(c2)OCO3)cnc(NCCc2ccccc2)c1=O [Example 16] | IC50 (Human factor Xa): > 100000 nM |
| – | – | 500 nM | N=C(N)CCNc1nc(Cl)c(-c2ccccc2)n(CC(=O)NCc2ccc(C(=N)N)cc2)c1=O [Example 50] | IC50 or % Inhibition Factor Xa (30 µM) (Human factor Xa): 39% |
| > 30000 nM | 120 nM | – | C[C@H](Nc1nc(Cl)c(-c2cccc(N)c2)n(CC(=O)NCc2ccc(C(=N)N)cc2)c1=O)C1CCCCC1 [1526-29] | – |
| > 30000 nM | 20000 nM | – | N=C(N)c1ccc(CNC(=O)Cn2c(-c3ccccc3)c(Cl)nc(NCCc3ccc(Br)cc3)c2=O)cc1 [1507-06] | – |
| > 30000 nM | 3000 nM | – | COc1ccc(CCNc2nc(Cl)c(-c3ccccc3)n(CC(=O)NCc3ccc(C(=N)N)cc3)c2=O)cc1 [1507-11] | – |
